EP0369733A2, “Fluorescent indicator dyes for alkali metal cations, their preparation and use” (THE REGENTS OF THE UNIVERSITY OF CALIFORNIA, priority 1988, dated 1990)
Values joined by “and” are separate entries in the source; they are usually repeats but may differ in a detail not shown here. Identical values can stand only once.

Key:
[1] = Cation titration followed by absorbance or fluorescence excitation spectra: Na⁺ binding; settings: for Kd: read-out: Dissociation constants (Kd) in mM for Na⁺
Method: (§1) • Footnote a: For molecular structures, see Fig. 1. • Footnote b: Except where otherwise noted, these dissociation constants were measured with the chelator dissolved in 0.1 M tetramethylammonium chloride, at a pH held high enough with 1-5 mM tris(hydroxymethyl)aminomethane for protonation to be insignificant. The absorbance spectrum, or the fluorescence excitation spectrum for those compounds (2GG, 2NN, 2OO, 2PP, 3NN) with acronyms was measured as a function of the concentration of cation added as a solid or concentrated aqueous solution of the halide salt. No correction has been made for the changing ionic strength of the solution, which started from 0.1 M and increased, but the absorbances and fluorescence amplitudes were applied for dilution of the dye and any slight quenching due to high concentrations of Cl⁻. • Footnote c: These protonation constants were determined in 0.1 M tetramethylammonium chloride, 10 mM tris(hydroxymethyl)aminomethane, titrated with 5 M H₃PO₄ to successively lower pH values measured with a Radiometer PHM84 meter. […] The first number is the wavelength in nanometers, followed in parentheses by 10⁻³ x the corresponding extinction coefficient, M⁻¹cm⁻¹. […] Emission maxima are not corrected for the spectral sensitivity of the emission detection. Quantum efficiencies were measured (13) by comparing the integral of the corrected emission spectrum with the corresponding integral for a solution of quinine bisulfate in 1 N H₂SO₄ of matched absorbance at the excitation wavelength.
(§2) Affinities for other cations were usually measured by titrating aqueous solutions of the indicator with metal chlorides added either as solid or from concentrated stock solutions, taking care to minimize dilution and correct for it. A convenient way to mass-produce premeasured micromole to millimole aliquots of solid NaCl or KCl was to pipet saline solutions into polypropylene micro test tubes and evaporate the water in an oven. The standard ionic background was again 100 mM tetramethylammonium chloride, usually with a few mM of tris(hydroxymethyl)-aminomethane base to hold the pH high enough (pH 8-9) to insure that protonation was negligible. This convenient titration procedure had the slight disadvantage that the ionic strength was not constant, especially when large quantities of a salt had to be added due to weak affinities. […] When constant ionic strength was desired, the chelator was made up at identical concentrations in matched solutions of NaCl, KCl, or tetramethylammonium chloride, then these stocks were mixed in the desired proportions. All measurements were made at room temperature (22°, ±2° C).

[2] = Cation titration followed by absorbance or fluorescence excitation spectra: Mg²⁺ binding; settings: read-out: Dissociation constants (Kd) in mM for Mg²⁺
Method: as §1
as §2, with “proportions.” for “proportions. All measurements were made at room temperature (22°, ±2° C).”

[3] = Cation titration followed by absorbance or fluorescence excitation spectra: Ca²⁺ binding; settings: 0.1 M tetramethylammonium chloride, 1-5 mM tris(hydroxymethyl)aminomethane, high pH; read-out: Dissociation constants (Kd) in mM for Ca²⁺
Method: as §1, §2

[4] = Cation titration followed by absorbance or fluorescence excitation spectra: Li⁺ binding; settings: for Kd: 0.1 M tetramethylammonium chloride, 1-5 mM tris(hydroxymethyl)aminomethane, high pH, read-out: Dissociation constants (Kd) in mM for Li⁺
Method: as §1, §2

[5] = UV absorbance spectra without and with saturating cation; type: physicochemical; settings: for Absorbance maxima -Na⁺ (wavelength): 100 mM tetramethylammonium chloride plus 1-5 mM Tris; for Absorbance maxima -Na⁺ (wavelength) / Absorbance maxima -Na⁺ (extinction coefficient): no Na⁺; for Absorbance maxima +Na⁺ (wavelength): enough NaCl added (0.2-1 M) to saturate the Na⁺ binding; for Absorbance maxima +Na⁺ (extinction coefficient) / Absorbance maxima -Na⁺ (extinction coefficient): number is 10⁻³ x the extinction coefficient; for Absorbance maxima +Na⁺ (extinction coefficient): lower limits, saturating NaCl (0.2-1 M); for Absorbance maxima -Na⁺ (extinction coefficient): lower limits for most compounds
Method: as §1
(§3) UV absorbance spectra were recorded initially on a Cary 210 and later on a Perkin-Elmer Lambda Array 3840 spectrophotometer. Fluorescence excitation and emission spectra and quantum efficiencies were measured on a Spex Fluorolog 111 as described previously (13).

physchem = settings: 0.1 m tetramethylammonium chloride
Method: (§4) • Footnote a: For molecular structures, see Fig. 1. • Footnote b: Except where otherwise noted, these dissociation constants were measured with the chelator dissolved in 0.1 M tetramethylammonium chloride, at a pH held high enough with 1-5 mM tris(hydroxymethyl)aminomethane for protonation to be insignificant. […] No correction has been made for the changing ionic strength of the solution, which started from 0.1 M and increased, but the absorbances and fluorescence amplitudes were applied for dilution of the dye and any slight quenching due to high concentrations of Cl⁻. • Footnote c: These protonation constants were determined in 0.1 M tetramethylammonium chloride, 10 mM tris(hydroxymethyl)aminomethane, titrated with 5 M H₃PO₄ to successively lower pH values measured with a Radiometer PHM84 meter.
(§5) Proton dissociation constants of the chelators were measured by spectrophotometry or spectrofluorometry of buffered solutions, containing either 100 mM tetramethylammonium chloride as inert supporting electrolyte, or 121.5 mM K⁺, 13.5 mM Na⁺, and 1 mM Mg²⁺ to simulate the cation environment of vertebrate cytoplasm (14). Traces of UV-absorbing impurities in the tetramethylammonium chloride (Alfa Inorganics) were removed by filtration through acid-­washed activated charcoal. The concentration of the tetramethylammonium chloride was then measured by chloride titration, and the absence of significant Na⁺ contamination was verified with a sodium-selective glass electrode (Microelectrodes Inc.). When the chelators contained two protonatable nitrogens, the curve of absorbance or fluorescence versus pH was analyzed by computerized least-squares fitting to the equations for two arbitrary proton equilibria (15), with the added assumption that the two protonations each caused the same change in extinction coefficient or fluorescence.

[6] = Fluorescence excitation/emission spectra and quantum efficiency; type: physicochemical; settings: for Emission maxima -Na⁺: 100 mM tetramethylammonium chloride; for Emission maxima -Na⁺ / Quantum efficiency -Na⁺: no Na⁺; for Emission maxima -Na⁺ / Emission maxima +Na⁺: not corrected for detector sensitivity; for Emission maxima +Na⁺: saturating NaCl; for Quantum efficiency -Na⁺ / Quantum efficiency +Na⁺: relative to quinine bisulfate in 1 N H₂SO₄ (0.55); for Quantum efficiency +Na⁺: saturating Na⁺; for fluorescence quantum yield: ±Na⁺ not specified
Method: as §1, §3

[7] = Proton dissociation constants in 0.1 M tetramethylammonium chloride; settings: second value (second protonation), 10 mM Tris titrated with 5 M H₃PO₄
Method: as §4, §5

[8] = 0.1 M tetramethylammonium chloride, 1-5 mM tris(hydroxymethyl)aminomethane, pH high enough for protonation to be insignificant, 22°
[9] = association constant, inert background cation (tetramethylammonium)
[10] = 0.1 M tetramethylammonium chloride, 1-5 mM tris(hydroxymethyl)aminomethane, high pH
[11] = footnote h: 3.0 M ionic strength (3.0 M NaCl mixed with 3.0 M tetramethylammonium chloride)

SMILES | Kd [1, 8] | Na⁺ affinity [1, 9] | Kd [3] | Kd [4] | Absorbance maxima -Na⁺ (wavelength) [5] | Absorbance maxima +Na⁺ (wavelength) [5] | pKa (physchem) | Absorbance maxima +Na⁺ (extinction coefficient) [5] | Absorbance maxima -Na⁺ (extinction coefficient) [5] | Emission maxima -Na⁺ [6] | Emission maxima +Na⁺ [6] | Kd [1, 11] | Quantum efficiency -Na⁺ [6] | Quantum efficiency +Na⁺ [6] | pKa [7] | other results
Cc1ccc2cc(O)cc(N3CCOCCOCCN(c4cc(O)cc5ccc(C)nc45)CCOCC3)c2n1 [Compound 2FF, N,N-bis-(6-hydroxy-2-methyl-8-quinolinyl)-diaza[15]-crown-5] | 8.9 mM |  |  |  | 363 nanometers | 362 nanometers |  | 2300 M⁻¹ cm⁻¹ | 2400 M⁻¹ cm⁻¹ | 497 nanometers | 466 nanometers |  |  |  |  | 
CC(=O)Nc1ccc(N2CCOCCOCCN(c3ccc(NC(C)=O)c4ccc(C)nc34)CCOCC2)c2nc(C)ccc12 [Compound 2DD, N,N-bis-(5-acetamido-2-methyl-8-quinolinyl)-diaza[15]-crown-5] | 9.4 mM |  |  |  |  |  | 7.55 |  |  | 525 nanometers | 510 nanometers | 4.4 mM | .01 | .01 | 5.62 | Na⁺ affinity relative to 2CC ([1]; fraction of the affinity of 2CC retained): more than half; Absorbance maxima -Na⁺ (wavelength) ([5]; listed as 2DO): 344 nanometers and 256 nanometers; Absorbance maxima +Na⁺ (wavelength) ([5]; listed as 2DO): 306 nanometers and 237 nanometers; fluorescence quantum yield [6]: 0.01
O=C(O)CCC(=O)Nc1ccc(N2CCOCCOCCN(c3ccc(NC(=O)CCC(=O)O)c4cc5ccccc5nc34)CCOCC2)c2nc3ccccc3cc12 [Compound 2II, N,N-bis-(1-succinamidoacridin-4-yl)-diaza[15]-crown-5] | 0.32 mM | 3125 M⁻¹ |  | 11.5 mM | 414 nanometers and 359 nanometers and 244 nanometers | 360 nanometers and 251 nanometers | 8.19 |  |  | 480 nanometers | 625 nanometers | 0.4 mM | <.001 | <.001 | 6.86 | Na⁺:K⁺ selectivity ([1]; ratio of Na⁺ to K⁺ affinity): > 500; fluorescence quantum yield [6]: very poor
Nc1ccc(N2CCOCCOCCOCCOCC2)c(C(=O)O)c1 [Compound 1B, N-(4-amino-2-carboxyphenyl)-aza[15]-crown-5] | 71 mM | 14 M⁻¹ |  |  | 295 nanometers | 296 nanometers | 9.21 | 1100 M⁻¹ cm⁻¹ | 1100 M⁻¹ cm⁻¹ |  |  |  |  |  |  | 
COc1cc(NC(C)=O)ccc1N1CCOCCOCCN(c2ccc(NC(C)=O)cc2OC)CCOCC1 [Compound 2JJ, N,N-bis-(4-acetamido-2-methoxyphenyl)-diaza[15]-crown-5] | 12 mM |  | > 100 mM | 72 mM | 261 nanometers | 280 nanometers and 249 nanometers | 6.31 | 5400 M⁻¹ cm⁻¹ and 10700 M⁻¹ cm⁻¹ | 10800 M⁻¹ cm⁻¹ |  |  |  |  |  | 5.0 | Na⁺ affinity ([1]; at I = 0.15): 83 M⁻¹; Kd [2, 10]: > 100 mM
CC(=O)Nc1ccc(N2CCOCCOCCN(c3ccc(NC(C)=O)c4cccnc34)CCOCC2)c2ncccc12 [Compound 2CC, N,N-bis-(5-acetamido-8-quinolinyl)-diaza[15]-crown-5] | 5.3 mM |  | 0.075 mM | 2.8 mM | 346 nanometers and 250 nanometers | 304 nanometers and 230 nanometers | 6.85 |  |  |  |  | 2.4 mM |  |  | 5.43 | Na⁺ affinity ([1]; depending on ionic strength): 190 to 415 M⁻¹; Kd ([2]; footnote i: free [Mg²⁺] controlled by Mg²⁺-nitrilotriacetate buffers at pH 8.5): 0.078 mM; affinity for Li⁺ (in words) ([4]; compared with its Na⁺ affinity): comparable to that for Na⁺

The next lines start with results.

Kd [1, 8] | Na⁺ affinity [1, 9] | Kd [3] | Kd [4] | Absorbance maxima -Na⁺ (wavelength) [5] | Absorbance maxima +Na⁺ (wavelength) [5] | pKa (physchem) | Absorbance maxima +Na⁺ (extinction coefficient) [5] | Absorbance maxima -Na⁺ (extinction coefficient) [5] | Emission maxima -Na⁺ [6] | Emission maxima +Na⁺ [6] | Kd [1, 11] | Quantum efficiency -Na⁺ [6] | Quantum efficiency +Na⁺ [6] | pKa [7] | SMILES | other results
67 mM | 15 M⁻¹ | 10 mM | 63 mM | 349 nanometers and 252 nanometers | 304 nanometers and 229 nanometers | < 7 |  |  |  |  |  |  |  |  | CC(=O)Nc1ccc(N2CCOCCOCCOCCOCC2)c2ncccc12 [Compound 1C, N-(5-acetamido-8-quinolinyl)-aza[15]-crown-5] | Kd [2, 10]: 12 mM
10 to 20 mM |  |  |  | 295 nanometers and 213 nanometers | 291 nanometers |  | 4000 M⁻¹ cm⁻¹ |  |  |  |  |  |  |  | COc1ccc(OC)c(N2CCOCCOCCN(c3cc(OC)ccc3OC)CCOCC2)c1 [Compound 2LL, N,N-bis-(2,5-dimethoxyphenyl)-diaza[15]-crown-5] | 
4.7 mM |  |  |  |  |  | 7.9 |  |  | 486 nanometers | 525 nanometers |  | .005 | .01 | 6.8 | Cc1ccc2c(n1)c(N1CCOCCOCCN(c3cc4oc(-c5ccc(C(=O)O)c(C(=O)O)c5)cc4c4ccc(C)nc34)CCOCC1)cc1oc(-c3ccc(C(=O)O)c(C(=O)O)c3)cc12 [Compound 2GG, N,N-bis(2-(3,4-dicarboxyphenyl)-7-methylfuro [3,2-f]quinolin-5-yl)-diaza[15]-crown-5] | Absorbance maxima -Na⁺ (wavelength) ([5]; listed as 2GG (SQFP)): 373 nanometers and 308 nanometers; Absorbance maxima +Na⁺ (wavelength) ([5]; listed as 2GG (SQFP)): 362 nanometers and 307 nanometers; Absorbance maxima -Na⁺ (extinction coefficient) ([5]; listed as 2GG (SQFP)): 24000 M⁻¹ cm⁻¹ and 22000 M⁻¹ cm⁻¹; Absorbance maxima +Na⁺ (extinction coefficient) ([5]; listed as 2GG (SQFP)): 31000 M⁻¹ cm⁻¹ and 28000 M⁻¹ cm⁻¹
